From patent US9657071B2, “IgE peptide vaccine” (NIPPON ZENYAKU KOGYO CO., LTD., priority 2012, dated 2017) come the findings set out here.

One experiment has as its system Der f 2-specific IgE. Put plainly: Prevention experiment in rats: Der f 2-specific IgE (ELISA). Type of experiment: in vivo. As to conditions: rat, 50 μg three times, then Der f 2 + alum. Here is the method:
Der f 2 was prepared at 1 μg/mL in an immobilization buffer (0.05 M carbonate buffer, pH 9.6), then added at a concentration of 100 μL/well to an ELISA plate, and left overnight at 4° C. The immobilization plate was washed once with PBS-T (0.05%). A blocking solution (4× Block Ace, Snow Brand Milk Products Co., Ltd.; UK-B80) was added thereto at a concentration of 200 μL/well. The plate was blocked by incubation at 37° C. for 1.5 hours. The serum was diluted 20-fold with a diluent (PBS-T:Block Ace=9:1) and used. The plate was reacted with the serum at 37° C. for 1.5 hours and washed three times with PBS-T (0.05%). An anti-rat IgE antibody (Rabbit anti-Rat IgE HRP; Invitrogen Corp., 61-9520) was diluted 1000-fold with a diluent and added thereto as a secondary antibody at a concentration of 100 μL/well. After reaction at 37° C. for 1.5 hours, the plate was washed three times with PBS-T (0.05%). […] Then, the measurement was performed using a plate reader (Bio-Rad Laboratories, Inc.; model 680) (dual: measurement: 450 nm, control: 570 nm). […]
Blood was collected every 2 weeks from the administer start date. […] Serum was collected, and an IgG antibody against dog IgE was evaluated by ELISA (FIG. 16). […]

The next experiment deals with human IgE. The experiment is described as follows: IgE-specific IgG in serum of dogs given IgE peptide vaccine (ELISA, human IgE immobilized). Type of experiment: in vivo. As to conditions: dog. As for the experimental part: The peptide used was MOUSE CH3-4-17-11 (mouse CH3 region amino acid sequence) (SEQ ID NO: 27). 2 mL (500 μg) of a solution of the peptide (concentration: 250 μg/mL) and 2 mL of a complete adjuvant (DIFCO ADJUVANT COMPLETE FREUND, Becton, Dickinson and Company Japan) were dispensed to microtubes. Liquids (4 mL per animal) emulsified by shaking for 15 minutes in a high-speed shaker were used as IgE peptide vaccines.
The animals used were 1 male and 7 females of 5- to 7-month-old beagles and were divided into an administration group (n=4; 08-33, 08-42, 08-43, and 08-44) and a non-administration group (n=4; 08-45, 08-46, 08-47, and 08-48).
The peptide was administered at days 0 (test start date), 14, and 28 in the first course and further at days 106 and 117 in the second course. The test substance was subcutaneously administered to the necks of the 4 animals in the administration group. The non-administration group was untreated. […]
Each antigenic protein (MOUSE CH3-4-17-11 for peptide-specific IgG assay, and human IgE for IgE-specific IgG assay) was prepared at 1 μg/mL in an immobilization buffer (0.05 M carbonate buffer, pH 9.6), then added at a concentration of 100 μL/well to an ELISA plate, and left overnight at 4° C. […] Then, the measurement was performed using a plate reader (Bio-Rad Laboratories, Inc.; model 680) (dual: measurement: 450 nm, control: 570 nm). […]
A general note: In an ELISA, binding on a coated surface is turned into a signal by an enzyme label.

In the case of “KKTSVSASQWYTKHHNNATT (listed as Mus musculus) [M4-7-11]”, the “Der f 2-specific IgE production compared with the control group (saline)” value is “inhibition of IgE production was confirmed” in the experiment with Der f 2-specific IgE (intravenous) and “inhibition of IgE production was remarkably confirmed” with Der f 2-specific IgE (subcutaneous (group 2)).
On to “QEKKTSVSASQWYTKHHNNATTSIT (listed as Mus musculus) [MOUSE CH3-4-17-11]”, for which, in the experiment on human IgE (day 77, p<0.05), the “IgE-specific IgG in serum, administration group versus non-administration group” value is “significantly higher”. The “level of IgG antibody against IgE” value with human IgE (summary of FIG. 6) is recorded as “increased”.
